Source: US20160137630A1, “INDUCTION OF GATA2 BY HDAC1 AND HDAC2 INHIBITORS” (ACETYLON PHARMACEUTICALS, INC., priority 2014, published 2016)
Entries after “also recorded” stand apart in the source; their conditions may differ. Read-outs that look alike come from different tables or passages of the source.

How the values were obtained:
MV4-11 cells = test: GATA2 expression in MV4-11 AML cell line; format: cell-based; conditions: 1 uM single agent, 48 h and 72 h
Method: FIG. 24. […] (A-B) MV4-11 cells were plated at 2×10^5 cells/ml at indicated doses for 48 h and 72 h. RNA was prepared and analyzed for GATA2 and GAPDH as internal control.

HbG mRNA = test: % HbG mRNA induction in 2-phase culture systems CS1 and CS2; format: cell-based, human
Text: Then, the cells were differentiated by exposure to either vehicle (control) or Compound 001. RNA samples of HbG were taken at days 0, 3, 5, and 8. […] Staining cells with a FITC-conjugated anti-HbF antibody and flow cytometry was used to measure induction of fetal hemoglobin.

[1] = system: human bone marrow-derived CD34+ cells; test: viability of expanded CD34+ cells; format: cell-based; conditions: Homo sapiens, 48 h; 2 days of treatment; FIG. 19A
Text: This possibility was first tested by measuring the viability of expanded human bone marrow-derived CD34+ cells, composed of primitive and more differentiated hematopoietic progenitors of multiple lineages, following 2 days of treatment with compound.

HDACs 4-9 = test: in vitro HDAC inhibition assay, HDACs 4-9; format: biochemical; conditions: concentrations as high as 20 μM; FIG. 20
[2] = system: Human CD34+ bone marrow cells; test: erythroid maturation in CS1 by CD71/GlyA flow cytometry; format: cell-based; conditions: 1 μM, first 5 days
Text: To investigate the effects of HDAC inhibition on later stages of erythroid maturation, differentiation in CS1 was followed by flow cytometry using fluorescent antibodies against the transferrin receptor (CD71) and glycophorin A (GlyA). […] The majority of vehicle control cells continued to differentiate, becoming CD71^posGlyA^pos by day 8. […] CD71^posGlyA^mid cells are equivalent to proerythroblasts (ProE), while CD71^posGlyA^pos cells include the more differentiated basophilic and polychromatic erythroblasts.

HDAC1 = HDAC1 (Homo sapiens, UniProt Q13547); test: in vitro biochemical HDAC inhibition assay; conditions: Table 3; read-out: IC50 HDAC1
HDAC2 = HDAC2 (Homo sapiens, UniProt Q92769); test: in vitro biochemical HDAC inhibition assay; conditions: Table 3; read-out: IC50 HDAC2
HDAC3 = HDAC3 (Homo sapiens, UniProt O15379); test: in vitro biochemical HDAC inhibition assay; conditions: Table 3; read-out: IC50 HDAC3
HDAC6 = HDAC6 (Homo sapiens, UniProt Q9UBN7); test: in vitro biochemical HDAC inhibition assay
Sequence of HDAC6 (Q9UBN7 whole entry): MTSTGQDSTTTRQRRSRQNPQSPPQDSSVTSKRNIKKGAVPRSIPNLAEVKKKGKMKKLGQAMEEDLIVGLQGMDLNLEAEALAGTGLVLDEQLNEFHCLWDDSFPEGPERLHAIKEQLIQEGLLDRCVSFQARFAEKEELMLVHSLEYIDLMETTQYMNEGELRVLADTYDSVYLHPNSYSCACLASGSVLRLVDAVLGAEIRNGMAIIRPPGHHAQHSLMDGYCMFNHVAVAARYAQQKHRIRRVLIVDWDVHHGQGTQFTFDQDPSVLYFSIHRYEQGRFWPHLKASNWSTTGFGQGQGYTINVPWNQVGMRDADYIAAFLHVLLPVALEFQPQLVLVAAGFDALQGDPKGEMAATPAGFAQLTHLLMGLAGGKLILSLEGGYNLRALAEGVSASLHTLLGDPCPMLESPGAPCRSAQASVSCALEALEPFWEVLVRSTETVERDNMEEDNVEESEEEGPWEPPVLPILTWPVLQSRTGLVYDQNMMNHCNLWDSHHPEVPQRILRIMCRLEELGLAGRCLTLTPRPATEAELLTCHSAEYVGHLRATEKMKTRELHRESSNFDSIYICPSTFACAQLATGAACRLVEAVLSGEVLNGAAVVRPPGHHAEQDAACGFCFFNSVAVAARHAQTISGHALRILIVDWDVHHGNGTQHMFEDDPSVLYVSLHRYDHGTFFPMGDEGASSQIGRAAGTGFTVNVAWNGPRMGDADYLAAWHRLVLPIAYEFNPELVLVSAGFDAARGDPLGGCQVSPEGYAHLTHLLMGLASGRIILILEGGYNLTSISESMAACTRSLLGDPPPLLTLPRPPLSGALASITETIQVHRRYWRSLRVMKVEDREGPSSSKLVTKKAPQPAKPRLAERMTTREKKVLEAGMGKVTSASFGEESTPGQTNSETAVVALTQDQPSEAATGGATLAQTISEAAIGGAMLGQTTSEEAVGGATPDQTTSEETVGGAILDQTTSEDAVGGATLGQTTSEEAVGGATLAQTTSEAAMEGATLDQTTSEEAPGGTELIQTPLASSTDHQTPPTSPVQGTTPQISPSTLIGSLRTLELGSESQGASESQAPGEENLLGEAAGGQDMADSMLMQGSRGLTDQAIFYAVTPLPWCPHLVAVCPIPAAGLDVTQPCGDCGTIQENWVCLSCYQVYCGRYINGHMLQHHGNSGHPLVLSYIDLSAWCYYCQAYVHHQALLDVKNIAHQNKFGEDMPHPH

Sequence of HDAC2 (Q92769 whole entry): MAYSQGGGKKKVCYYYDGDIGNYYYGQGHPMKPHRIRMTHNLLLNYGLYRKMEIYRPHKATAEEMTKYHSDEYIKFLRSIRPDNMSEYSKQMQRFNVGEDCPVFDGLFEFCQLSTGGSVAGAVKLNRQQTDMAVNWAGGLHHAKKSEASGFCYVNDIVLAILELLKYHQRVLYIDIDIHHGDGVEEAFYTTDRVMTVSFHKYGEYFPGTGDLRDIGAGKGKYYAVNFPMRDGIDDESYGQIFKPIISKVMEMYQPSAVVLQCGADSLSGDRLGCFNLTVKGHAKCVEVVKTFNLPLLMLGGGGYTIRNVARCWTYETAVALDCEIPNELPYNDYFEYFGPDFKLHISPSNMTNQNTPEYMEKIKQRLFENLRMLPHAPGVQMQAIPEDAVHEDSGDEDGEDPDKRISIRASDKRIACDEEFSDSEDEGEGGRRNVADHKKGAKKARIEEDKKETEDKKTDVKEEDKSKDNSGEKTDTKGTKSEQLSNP
Sequence of HDAC3 (O15379 whole entry): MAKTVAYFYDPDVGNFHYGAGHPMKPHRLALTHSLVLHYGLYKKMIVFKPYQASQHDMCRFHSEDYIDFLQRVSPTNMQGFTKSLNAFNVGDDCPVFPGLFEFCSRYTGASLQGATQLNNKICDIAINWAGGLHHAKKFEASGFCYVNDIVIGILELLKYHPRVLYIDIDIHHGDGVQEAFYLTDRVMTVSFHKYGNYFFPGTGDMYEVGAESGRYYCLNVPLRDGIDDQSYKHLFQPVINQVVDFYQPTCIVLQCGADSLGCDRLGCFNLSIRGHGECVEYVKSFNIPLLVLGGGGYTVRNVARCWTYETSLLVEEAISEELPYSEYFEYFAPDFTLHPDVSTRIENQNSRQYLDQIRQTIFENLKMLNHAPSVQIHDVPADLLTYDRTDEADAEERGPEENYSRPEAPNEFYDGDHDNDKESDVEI
Sequence of HDAC3 (Q9Y618 395-489 partner limits assumed): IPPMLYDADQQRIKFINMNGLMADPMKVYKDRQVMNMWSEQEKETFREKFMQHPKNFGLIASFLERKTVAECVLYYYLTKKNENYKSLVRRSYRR
Sequence of HDAC1 (Q13547 whole entry): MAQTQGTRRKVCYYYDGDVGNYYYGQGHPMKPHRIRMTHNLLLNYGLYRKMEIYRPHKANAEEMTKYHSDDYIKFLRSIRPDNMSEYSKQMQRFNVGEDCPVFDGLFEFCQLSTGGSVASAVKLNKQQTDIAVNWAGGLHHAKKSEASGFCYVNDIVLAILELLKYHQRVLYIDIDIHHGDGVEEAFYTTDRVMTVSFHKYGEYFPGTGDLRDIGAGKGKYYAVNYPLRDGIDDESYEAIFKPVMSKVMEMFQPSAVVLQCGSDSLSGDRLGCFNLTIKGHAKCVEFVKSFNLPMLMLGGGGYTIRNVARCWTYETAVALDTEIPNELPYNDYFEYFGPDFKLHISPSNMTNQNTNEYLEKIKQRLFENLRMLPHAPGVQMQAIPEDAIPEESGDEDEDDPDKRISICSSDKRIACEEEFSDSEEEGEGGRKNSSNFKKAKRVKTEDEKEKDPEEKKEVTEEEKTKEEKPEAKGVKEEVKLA

Row | SMILES | GATA2 level (MV4-11 cells) | IC50 (HDAC1) [µM] | IC50 (HDAC2) [µM] | IC50 (HDAC3) [µM] | also measured
1 | Nc1ccc(-c2cccs2)cc1NC(=O)c1ccc2c(c1)cc(C1CC1)n2CCN1CCOCC1 [Compound 005, N-(2-amino-5-(thiophen-2-yl)phenyl)-2-cyclopropyl-1-(2-morpholinoethyl)-1H-indole-5-carboxamide] | induced GATA2 level | – | – | – | –
2 | Nc1ccccc1NC(=O)c1ccc(CNC(=O)OCc2cccnc2)cc1 [Entinostat, reference compound] | – | – | – | – | % HbG (HbG mRNA; 1 μM, increased from 10%): 46%; induction in % HbG (HbG mRNA; differentiation phase, both culture systems, FIG. 10B, 21A-C): dose- and time-dependent induction; IC50 [1]: 3 µM; inhibition of HDACs 4-9 (HDACs 4-9): negligible inhibitory activity; also recorded: no inhibition; erythroid differentiation (CD71/GlyA) [2]: differentiated normally
3 | O=C(NO)c1cnc(NC2(c3ccccc3)CCN(C(=O)Nc3ccc(Cl)c(Cl)c3)CC2)nc1 [Compound 1011] | – | 0.11 | 0.177 | 2.16 | IC50 (HDAC6; read-out: IC50 HDAC6, Table 3): 0.014 µM
4 | Nc1ncn([C@@H]2O[C@H](CO)[C@@H](O)[C@H]2O)c(=O)n1 [Azacitidine, azacitidine, reference compound] | induced GATA2 level | – | – | – | –
5 | CC(C)[C@@H](C(=O)N1CCC(C)(Nc2ncc(C(=O)NO)cn2)CC1)c1ccccc1 [Compound 1027] | – | 0.13 | 0.103 | 0.422 | IC50 (HDAC6): 0.012 µM
